The results in this text go back to patent publication US8828929B2 (priority 2008, dated 2014).

Where no end group is shown, it is not given here.

For assay [1], the target named is T1, HLA-A*0201 (Homo sapiens, UniProt P04439, D140Y/D185E/D98H/E176V/E277Q/G131W/G231S/I119V/I121R/I166T/I218V/L300P/L318F/N151K/N90K/P208A/P217A/Q86G/Q94H/R138H/R169H/T345S).
T1 construct: endogenous in cells; host or cells: T2 cells (human lymphoid, TAP-deficient)
Nature of the assay: cell-based. In kind it is binding.

The target in assay [2] is T2, HLA-A*0201 (Homo sapiens, UniProt P04439, /I218V/L300P/L318F/N151K/N90K/P208A/P217A/Q86G/Q94H/R138H/R169H/T345S).
T2 construct: endogenous in cells; host or cells: T2 cells (human lymphoid, TAP-deficient)
Nature of the assay: cell-based. In kind it is binding.

Assay [3] deals with target cells pulsed with the peptide. On the set-up: species or system HLA-A2 transgenic mouse. The settings on record: mouse, in vivo.
Assay [4] concerns peptide-specific CTLs (IFN-γ-positive cells among CD8-positive cells). On the set-up: species or system HLA-A2 transgenic mouse. Particulars: mouse, in vivo.
The test system is the same in assay [5]. On the set-up: species or system HLA-A2 transgenic mouse. Particulars: mouse, in vivo. The source holds these as a separate data set.

The sequence CLDAGINYV [pp1a-2187] had an EC50 at HLA-A*0201 [1] of 3 µM. In addition, the Affinity entry at HLA-A*0201 [2] is given as “High (key: High: less than 100 μM; Medium: 100 to 200 μM; Low: more than 200 μM)”. In addition, in assay [3], the CTL response activity entry is “high CTL response activities” and the “peptide-specific lysis rates (%) of the target cells by CTLs” value came out at 79.2%. Moreover, the “induction of IFN-γ-positive cells among CD8-positive cells” value in assay [4] is recorded as “significantly induced IFN-γ-positive cells among CD8-positive cells”. Also, the “ICS (% in CD8+ cells)” value in assay [4] (iv) is “*0.19%”. Also, the CTL induction activity result in assay [5] is given as “higher than that of the CTL epitope peptide of the Spike protein”.

Usually EC50 stands for the concentration at which the effect is half-maximal.
